# Experimental data published in patent US4331659A, “Antibiotic U-62,162 and process of making” (The Upjohn Company, priority 1980, dated 1982).
# Tests used:
# S. aureus 6029 = test: disc plate assay (zone of inhibition, BU); assay type: cell-based; conditions: essentially pure crystalline, after countercurrent distribution
# Procedure: Buffered (pH 5.8) silica gel is prepared by treating 1 kg of silica gel 60 with a solution of 54.4 g of KH2 PO4 in 800 ml of water. This is dried 16 hours at 110°. A 1 inch (diameter) column containing 60 g of buffered (pH 5.8) silica gel is poured in a slurry with chloroform. To this is added 250 mg of crude U-62,162, prepared as described above, in chloroform. The column is developed first with 120 ml of CHCl3, then with CHCl3 :MeOH (94:6 v/v). Fractions of 5 ml each are collected beginning when the mixed solvent is introduced. They are assayed by plating 12 mm discs containing […] aliquots on S. aureus 6029 trays. Fractions 55-65, containing most of the activity, are pooled and evaporated, 90 mg, […], 17,200 total BU.
# A preparation of antibiotic U-62,162, as described above, (3 g) is distributed for 300 transfers in the two-phase solvent system afforded by ethyl acetate:ethanol (95%):cyclohexane:water (2:3:3:2 v/v). Phase volumes are 10 ml each. Fractions 120-150 are combined and the residue from these after evaporation affords essentially pure crystalline antibiotic U-62,162, 1 g, assaying 800-1500 BU/mg against S. aureus 6029. A BU is the amount of material distributed on a 12 mm disc which will give a 20 mm zone of inhibition.
# Gram-positive bacteria = test: antibacterial activity against Gram-positive bacteria; assay type: cell-based
# Procedure: (§1) The antibacterial assay is a standard agar dilution assay. The MIC is determined by standard methods using two-fold dilutions of the antibiotic in Brain Heart Infusion Broth (Difco Lab., Detroit, Michigan). The inocula are overnight cultures of the test organisms, diluted so that the final population contains approximately 10^5 cells/ml. The solutions are incubated at 28° to 37° C. for 24 hours. The lowest antibiotic concentration which allows no growth=MIC or minimum inhibitory concentration.
# stability to pH = assay type: physicochemical; conditions: pH 8.5 and higher
# Solubilities = assay type: physicochemical; conditions: lower alcohols (1-4 carbons), esters, ethers, aromatic hydrocarbons, dimethylformamide, dimethylsulfoxide, lower ketones (3-6 carbons)
# Escherichia coli = test: standard agar dilution assay (MIC); assay type: cell-based; conditions: UC 45; 24 hours, 28° to 37° C.
# Procedure: as §1
# Streptococcus pneumoniae = test: standard agar dilution assay (MIC); assay type: cell-based; conditions: UC 41; 24 hours, 28° to 37° C.
# Procedure: as §1
# Pseudomonas aeruginosa = test: standard agar dilution assay (MIC); assay type: cell-based; conditions: UC 95; 24 hours, 28° to 37° C.
# Procedure: as §1
# [1] = system: Salmonella schottmuelleri; test: standard agar dilution assay (MIC); assay type: cell-based; conditions: UC 126; 24 hours, 28° to 37° C.
# Procedure: as §1
# Enterococcus sp. = test: standard agar dilution assay (MIC); assay type: cell-based; conditions: UC 701; 24 hours, 28° to 37° C.
# Procedure: as §1
# Klebsiella pneumoniae = test: standard agar dilution assay (MIC); assay type: cell-based; conditions: UC 58; 24 hours, 28° to 37° C.
# Procedure: as §1
# Staphylococcus aureus = test: standard agar dilution assay (MIC); assay type: cell-based; conditions: 24 hours, 28° to 37° C.
# Procedure: as §1
# Streptococcus pyogenes = test: standard agar dilution assay (MIC); assay type: cell-based; conditions: UC 152; 24 hours, 28° to 37° C.
# Procedure: as §1
# Streptococcus faecalis = test: standard agar dilution assay (MIC); assay type: cell-based; conditions: UC 694; 24 hours, 28° to 37° C.
# Procedure: as §1
# H. influenzae = test: standard agar-dilution method, MIC against ampicillin-resistant and ampicillin-susceptible H. influenzae type b; assay type: cell-based
# Procedure: Antibiotic U-62,162 was also tested for activity against a group of ampicillin-resistant and ampicillin-susceptible H. influenzae type b.
# A solution of the compound was prepared in dimethylsulfoxide (DMSO), diluted in Brain Heart Infusion Broth (BHIB) and MIC's were determined using the standard agar-dilution method.
compound,measurement,setting,value
"CC(C)=CC(C)CC(C)/C=C/C(=O)NC1=CC(O)(CCCCC(=O)O)C2OC2C1=O (centres unmarked) [U-62,162]",potency (BU; amount on a 12 mm disc which will give a 20 mm zone of inhibition),S. aureus 6029,800-1500 BU/mg
same,activity against various Gram-positive bacteria (in words),Gram-positive bacteria,active
same,stability,stability to pH,unstable
same,Solubilities,Solubilities,soluble
same,Minimum Inhibitory Concentration,Escherichia coli,> 1000 µg/mL
same,Minimum Inhibitory Concentration,Streptococcus pneumoniae,1.0 µg/mL
same,Minimum Inhibitory Concentration,Pseudomonas aeruginosa,> 1000 µg/mL
same,Minimum Inhibitory Concentration,[1],> 1000 µg/mL
same,Minimum Inhibitory Concentration,Enterococcus sp.,7.8 µg/mL
same,Minimum Inhibitory Concentration,Klebsiella pneumoniae,> 1000 µg/mL
same,Minimum Inhibitory Concentration,Staphylococcus aureus; UC 76,1.0 µg/mL
same,Minimum Inhibitory Concentration,Staphylococcus aureus; UC 6685,1.0 µg/mL
same,Minimum Inhibitory Concentration,Staphylococcus aureus; UC 6690,1.0 µg/mL
same,Minimum Inhibitory Concentration,Streptococcus pyogenes,125 µg/mL
same,Minimum Inhibitory Concentration,Streptococcus faecalis,7.8 µg/mL
same,MIC,"H. influenzae; UC 6482, ampicillin susceptible",62.5 mg/L
same,MIC,"H. influenzae; UC 6483, ampicillin resistant",31.25 mg/L
same,MIC,"H. influenzae; UC 6484, ampicillin resistant",31.25 mg/L
same,MIC,"H. influenzae; UC 6485, ampicillin susceptible",31.25 mg/L
same,MIC,"H. influenzae; UC 6486, ampicillin susceptible",31.25 mg/L
same,MIC,"H. influenzae; UC 6582, ampicillin resistant",31.25 mg/L
same,MIC,"H. influenzae; UC 6583, ampicillin resistant",31.25 mg/L
same,MIC,"H. influenzae; UC 6585, ampicillin resistant",31.25 mg/L
same,MIC,"H. influenzae; UC 6586, ampicillin resistant",31.25 mg/L
same,MIC,"H. influenzae; UC 6587, ampicillin resistant",31.25 mg/L
same,MIC,"H. influenzae; UC 6589, ampicillin resistant",31.25 mg/L
same,MIC,"H. influenzae; UC 6592, ampicillin resistant",15.6 mg/L
same,MIC,"H. influenzae; UC 6595, ampicillin resistant",31.25 mg/L
same,MIC,"H. influenzae; UC 6596, ampicillin resistant",31.25 mg/L
same,MIC,"H. influenzae; UC 6597, ampicillin susceptible",31.25 mg/L
same,MIC,"H. influenzae; UC 6598, ampicillin susceptible",31.25 mg/L
same,activity against H. influenzae type b cultures (in words),H. influenzae; all of the cultures tested,moderate activity
